For assay [1], the system named is rats. Put plainly: Radial Arm Maze Task in Rats, an In Vivo Test for Learning and Memory. On the set-up: species or system rat. The following applies: MK-801 0.1 mg/kg i.p., compared to control, p<0.01. The protocol:
The test was performed as previously described (Zhang, H.-T., Crissman, A. M., Dorairaj, N. R., Chandler, L. J., and O'Donnell, J. M., Neuropsychopharmacology, 2000, 23, 198-204.). Five days after initial housing, rats (male Spraque-Dawley (Harlan) weighing 250 to 350 g) were placed in the eight-arm radial maze (each arm was 60×10×12 cm high; the maze was elevated 70 cm above the floor) for acclimation for two days. Rats were then placed individually in the center of the maze for 5 minutes with food pellets placed close to the food wells, and then, the next day, in the wells at the end of the arms; 2 sessions a day were conducted. Next, four randomly selected arms were then baited with one pellet of food each. The rat was restricted to the center platform (26 cm in diameter) for 15 seconds and then allowed to move freely throughout the maze until it collected all pellets of food or 10 minutes passed, whichever came first. Four parameters were recorded: 1) working memory errors, i.e., entries into baited arms that had already been visited during the same trial; 2) reference memory errors, i.e., entries into unbaited arms; 3) total arm entries; and 4) the test duration (seconds), i.e., the time spent in the collection of all the pellets in the maze. […]
(§1) All data were analyzed by analyses of variance (ANOVA); individual comparisons were made using Kewman-Keuls tests. […]

For assay [2], the system named is rats. Put plainly: Passive Avoidance in Rats, an in vivo Test for Learning and Memory. On the set-up: species or system rat. The following applies: MK-801 0.1 mg/kg, compared to the vehicle, p<0.001, 24 hours after shock. The protocol: The test was performed as previously described (Zhang, H.-T., Crissman, A. M., Dorairaj, N. R., Chandler, L. J., and O'Donnell, J. M., Neuropsychopharmacology, 2000, 23, 198-204.). The apparatus (Model E10-16SC, Coulbourn Instruments, Allentown, Pa.) consisted of a two-compartment chamber with an illuminated compartment connected to a darkened compartment by a guillotine door. The floor of the darkened compartment consisted of stainless steel rods through which an electric foot-shock could be delivered from a constant current source. All experimental groups were first habituated to the apparatus the day before the start of the experiment. During the training, the rat (Male Spraque-Dawley (Harlan) weighing 250 to 350 g) was placed in the illuminated compartment facing away from the closed guillotine door for 1 minute before the door was raised. The latency for entering the darkened compartment was recorded. After the rat entered the darkened compartment, the door was closed and a 0.5 mA electric shock was administered for 3 seconds. […] The latency for entering the darkened compartment was recorded for up to 180 seconds, at which time the trial was terminated.
as §1

For the molecule `C[C@]12N[C@H](Cc3ccccc31)c1ccccc12` [MK-801], the “frequencies of working and reference memory errors” value in the assay with rats [1] was “increased the frequencies of both working and reference memory errors”. Besides, in the assay with rats [2], the “latency for entering the darkened compartment” value is “markedly reduced this latency”.

Source of the values: patent US7700631B2, “Phosphodiesterase 4 inhibitors” (Memory Pharmaceuticals Corporation, priority 2002, dated 2010).
